From PMC7998250, “Temperate Zone Plant Natural Products—A Novel Resource for Activity against Tropical Parasitic Diseases” (Pharmaceuticals, 2021) come the findings set out here.

For assay [1], the system named is T. brucei bloodstream form. The assay can be described thus: Initial screen, T. brucei bloodstream form, Alamar Blue. Conditions: for activity at 2 µM / inhibition of growth at 2 µM: Trypanosoma brucei; for initial hit against T. brucei: growth reduced by ≥50%; for inhibition of growth at 2 µM: read-out: initial hit T.b. The format is cell-based, Trypanosoma brucei brucei. Summed up:
(§1)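 Bloodstream-form T. evansi Antat 3/3 and T. brucei Lister 427 were grown in HMI-11 with 10% FBS at 37 °C. Parasites were plated at 1×10^5 cells/mL with compound at 1 μM (T. evansi) or 2 μM (T. brucei) for 48 h, and growth was read by Alamar Blue relative to 1% DMSO controls (n = 6).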

Assay [2] concerns T. evansi bloodstream form. Nature of the assay: Initial screen, T. evansi bloodstream form, Alamar Blue. Format: cell-based, Trypanosoma evansi. Conditions: for activity at 1 µM / inhibition of growth at 1 µM: Trypanosoma evansi; for inhibition of growth at 1 µM: read-out: initial hit T.e. The essentials: as §1
Assay [3] has as its system L. donovani axenic amastigotes. The assay can be described thus: Concentration-response EC50, L. donovani axenic amastigotes. Format: cell-based. The following applies: Leishmania donovani. The text has this:
The four lanosterone-like sterols derived from the Noble Fir Abies procera (700022, 700107, 700136) and the Grand Fir Abies grandis (700240) were the only initial compounds taken forward for L. mexicana due to their nanomolar activity and apparent low cytotoxicity (Figure 3a). […] Understanding the impact of the ring-opened lactone head group in this compound compared to the other three warrants further analysis in exploring their structure-activity relationships. These four sterols were also tested for growth inhibitory activity against L. donovani axenic amastigotes. […] As Leishmania spp. amastigotes typically reside with macrophages, further cytotoxicity assays with these sterols were performed against an activated monocyte cell line (THP-1) (Figure 4b).

Assay [4] concerns T. brucei. The assay can be described thus: Concentration-response EC50, T. brucei. The following applies: 48 h. The format is cell-based, Trypanosoma brucei brucei.
From the text: (§2) Initial hits from the parasite panel screen were taken forward in log concentration versus normalised response assays to estimate the half maximal effective concentration (EC50) in hit species as well as the half maximal cytotoxic concentrations (CC50) in the human hepatoma cell line HepG2 as a preliminary test for selectivity. Using CC50/EC50 to define the selectivity index (SI), the selectivity for each compound in a defined species compared to a human cell line was estimated and compared to the EC50 (Figure 3).
(§3) EC50 values were determined by serial two-fold dilution of each compound in 96 well plates. Culture conditions and viability assays were as stated for the initial screen, with some exceptions. L. mexicana and L. donovani axenic amastigotes were seeded at 2 × 10^6 cell/s mL, T. brucei and T. evansi were seeded at 2 × 10^5 cells/mL. For cytotoxicity studies, HepG2 cells were seeded at 1 × 10^5 cells/mL, incubated for 48 h and viability was assessed using the Alamar Blue assay [66, 67]. […] Normalised growth and viability data (compared to untreated controls) were plotted against Log10 concentration to estimate EC50 in GraphPad (Prism v6).
For assay [5], the system named is T. evansi. Nature of the assay: Concentration-response EC50, T. evansi. The format is cell-based. Conditions: Trypanosoma evansi, 48 h, read-out: T. evansi EC50.
From the text: as §2, §3
Assay [6] has as its system P. falciparum Dd2Luc. Nature of the assay: Concentration-response EC50, P. falciparum Dd2Luc. Format: cell-based, Plasmodium falciparum. The following applies: 48 h.
From the text: as §2, §3
Assay [7] deals with P. falciparum 3D7. The assay can be described thus: Concentration-response EC50, P. falciparum 3D7. Conditions: Plasmodium falciparum. Format: cell-based. From the text:
This is not surprising as the rate of kill is a result of the mechanism of cell death and, given their structural similarity, these three bisobolane sesquiterpene glycosides likely share the same target(s), albeit with some differences in affinity. The rate of kill, relatively, falls between that of atovaquone and dihydroartemisinin and is more similar to that of chloroquine.

The mark [8] stands for this setting: mean % growth compared to a normalised control with same concentration of DMSO solvent, initial screen, read-out: % growth T. b. brucei.
[9] abbreviates: mean % growth compared to a normalised control with same concentration of DMSO solvent, initial screen, read-out: % growth T. evansi.
The mark [10] stands for this setting: read-out: mean % growth, T. b. brucei, initial screen, compared to a normalised control with same concentration of DMSO solvent.
[11] abbreviates: read-out: mean % growth, T. evansi, initial screen, compared to a normalised control with same concentration of DMSO solvent.
[12] abbreviates: Trypanosoma brucei, read-out: T. brucei EC50, bloodstream form, 48 h.
[13] abbreviates: Plasmodium falciparum, read-out: P. falciparum Dd2Luc EC50, intraerythrocytic, 48 h.
The mark [14] stands for this setting: 3D7, read-out: P. falciparum 3D7 EC50.
Setting [15] is: initial screen, compared to a normalised control with same concentration of DMSO solvent.

Where two headings read alike, the source gives them in different places.

On to `C/C(=C/C(=O)CC(C)C1CCC2(C)C3=CCC4C(C)(C)C(=O)CCC4(C)C3CCC12C)C(=O)O` (stereo not shown) [Compound 700240], for which the activity at 2 µM in assay [1] (setting [8]) was found to be 72.9%. Further, in assay [2] (setting [9]), the activity at 1 µM is 120%. Moreover, in assay [3], the response was half-maximal at 340 nM (EC50).

Take `C=C1C(=O)OC2CC(C)C3C=CC(=O)C3(C)C(OC(=O)C(C)C)C12` (stereo not shown) [Compound 701157]: in assay [1] (2 μM), the “initial hit against T. brucei” value was “initial hits”. Besides, the inhibition of growth at 2 µM in assay [1] is > 50%. In addition, the activity at 2 µM in assay [1] (setting [10]) was -1.8%. In assay [2], the inhibition of growth at 1 µM was > 50%. Also, the activity at 1 µM in assay [2] (setting [11]) is -4.3%. Besides, the EC50 (usually the concentration at which the effect is half-maximal) is 290 nM in assay [4] (setting [12]), 191 nM in assay [5], 1800 nM in assay [6] (setting [13]) and 2100 nM in assay [7] (setting [14]).

Consider `CC1OC(OC2C(OC(=O)C3CC[C@@H]4[C@H](C3)OC3(CC(OC(=O)/C=C/c5ccccc5)[C@@H](C)CO3)C43CO3)OC(CO)C(O)C2O)C(O)C(O)C1O` (stereo partly shown) [Compound 700042], for which the “initial hit against T. brucei” value in assay [1] (2 μM) is “initial hits”. Besides, the activity at 2 µM in assay [1] (read-out: % growth T. b. brucei, mean % growth compared to a normalised control with same concentration of DMSO solvent, initial screen) was 1.6%. For the same compound, the inhibition of growth at 2 µM in assay [1] is > 50%. Moreover, the activity at 1 µM in assay [2] (read-out: % growth T. evansi, mean % growth compared to a normalised control with same concentration of DMSO solvent, initial screen) came out at 40.2%. In addition, in assay [2], the inhibition of growth at 1 µM was > 50%. Moreover, the EC50 in assay [4] (setting [12]) worked out at 410 nM; in assay [5], 618 nM; in assay [6] (setting [13]) it was 280 nM; in assay [7] (setting [14]) it was 190 nM.

`C=C1C(=O)OC2CC(C)C3C(OC)CC(=O)C3(C)C(OC(=O)C(C)CC)C12` (stereo not shown) [Compound 701159]: in assay [1] (2 μM), the “initial hit against T. brucei” value is on record as “initial hits”. For the same compound, the activity at 2 µM in assay [1] (initial screen, compared to a normalised control with same concentration of DMSO solvent, read-out: mean % growth, T. b. brucei) is 13.7%. Further, the inhibition of growth at 2 µM in assay [1] (2 μM, x = initial hit) is > 50%. The activity at 1 µM in assay [2] (initial screen, compared to a normalised control with same concentration of DMSO solvent, read-out: mean % growth, T. evansi) turned out to be 82%. The EC50 in assay [4] (Trypanosoma brucei, bloodstream form, read-out: T. brucei EC50) was 390 nM; in assay [6] (setting [13]), 4500 nM; in assay [7] (3D7, intraerythrocytic, read-out: P. falciparum 3D7 EC50) it was 4600 nM.

Turning to `CC1=CC(O)(CC(C)C2(C)CCC3C4=CCC5C(C)(CCC(O)C5(C)C)C4=CCC32C)OC1=O` (stereo not shown) [Compound 700107], the activity at 2 µM in assay [1] (setting [8]) stood at 85.2%. The activity at 1 µM in assay [2] (setting [9]) worked out at 66.5%. The compound also yielded a concentration giving a half-maximal response (EC50) in assay [3] of 260 nM.

For the compound `C=C1C(=O)OC2CC(C)C3C=CC(=O)C3(C)C(OC(C)=O)C12` (stereo not shown) [Compound 701155], in assay [1] (2 μM), the “initial hit against T. brucei” value was “initial hits”. The “mean % growth, T. b. brucei” value in assay [1] (setting [15]) is on record as -0.8%. In addition, the inhibition of growth at 1 µM in assay [2] was > 50%. Moreover, the “mean % growth, T. evansi” value in assay [2] (setting [15]) stood at 1.0%. Further, the 50% effective concentration (EC50) was determined as 150 nM in assay [4] (read-out: T. brucei EC50, bloodstream form); 135 nM in assay [5]; 1600 nM in assay [6] (setting [13]); 2900 nM in assay [7] (setting [14]).

As to `CC1=CC(O)(CC(C)C2(C)CC=C3C4=CCC5C(C)(C)C(O)CCC5(C)C4CCC32C)OC1=O` (stereo not shown) [Compound 700022], the activity at 2 µM in assay [1] (setting [8]) amounted to 53.5%. In addition, the activity at 1 µM in assay [2] (setting [9]) came out at 70.8%. The compound also returned an EC50 in assay [3] of 140 nM.

For the compound `C=C1C(=O)OC2CC(C)C3C=CC(=O)C3(C)C(OC(=O)C(C)CC)C12` (stereo not shown) [Compound 701158], in assay [1] (2 μM), the “initial hit against T. brucei” value is “initial hits”. Also, the inhibition of growth at 2 µM in assay [1] was > 50%. Also, the activity at 2 µM in assay [1] (setting [10]) is -1.3%. For the same compound, in assay [2], the inhibition of growth at 1 µM is > 50%. Moreover, the activity at 1 µM in assay [2] (setting [11]) worked out at 0.454%. Besides, the EC50 in assay [4] (setting [12]) was 310 nM; in assay [5] it was 244 nM; in assay [6] (setting [13]), ~1000 nM; in assay [6] (read-out: P. falciparum Dd2Luc EC50, intraerythrocytic) it was 1600 nM; in assay [7] (setting [14]) it was 1500 nM.

As to `CC1=CC(O)(CC(C)C2(C)CC=C3C4=CCC5C(C)(C)C(=O)CCC5(C)C4CCC32C)OC1=O` (stereo not shown) [Compound 700136], the activity at 2 µM in assay [1] (setting [8]) came out at 104%. The activity at 1 µM in assay [2] (setting [9]) turned out to be 76.2%. In assay [3], this compound came in with an EC50 of 160 nM.
